Entries after “also recorded” stand apart in the source; their conditions may differ. No end group written: not given here.
Tested on: BALB/c (H-2d) mice
Test: Humoral responses after immunization by various routes with MALP-2 as adjuvant (serum β-galactosidase-specific antibody ELISA, Example 2)
Format: in vivo
Conditions: day 28
Procedure: Mice were immunized by subcutaneous (s.c.), intraperitoneal (i.p.), intradermal (i.d.) and intranasal (i.n.) routes with either pure β-galactosidase (40 μg) or β-galactosidase mixed with MALP-2 (0.5 μg) on days 0, 7 and 14. On day 28 after the primary immunization, serum samples were removed and the titer of β-galactosidase-specific antibodies was determined by means of an ELISA. The results are shown as reciprocal log2 of the geometric mean of the endpoint titer. As a control, we included a group in which the animals were immunized by the route with β-galactosidase using aluminum hydroxide as adjuvant.
Mice were immunized by the intraperitoneal (i.p.) and intranasal (i.n.) route with either pure β-galactosidase (40 μg/dose) or β-galactosidase mixed with MALP-2 (1 μg/dose) on days 0, 7 and 14. On day 28 after the primary immunization, serum samples were taken and the titer of β-galactosidase-specific antibodies was determined by means of an ELISA. The results are shown as absorbances (OD […]).
Six- to eight-week old female BALB/c (H-2d) mice were purchased from Harlan Winkelmann GmbH (Borchen, Germany) and treated in accordance with local and EU directives. Groups each of 5 mice were immunized on day 1, 7 and 14 either with 40 μg of pure β-galactosidase (Boehringer, Mannheim, Germany), or with admixture of 1 or 0.5 μg of synthetic MALP-2. For the intranasal administration (i.n.), 10 μl was administered into each nostril, whereas for i.p., s.c. and i.d. injection β-galactosidase was resuspended with or without MALP-2 in respectively 400, 100 and 100 μl of PBS. 28 days after the first immunization, serum samples were taken and stored at −20° C. until the β-gal-specific antibodies were determined. Nunc-Immuno MaxiSorp assay plates with 96 wells (Nunc, Roskilde, Denmark) were coated with 100 μl of β-galactosidase (Boehringer, Mannheim, Germany) with 5 μg/ml in 0.05 M carbonate buffer (pH 8.2) per well. Serum dilutions with 1% BSA and 0.05% Tween-20 in PBS were added ([…]), and the plates were incubated at 37° C. for 24 hours. […]

S-[2,3-bispalmitoyloxypropyl]cysteinyl-GNNDESNISFKEK ({S‑(2,3-bispalmitoyloxypropyl)Cys}-GNNDESNISFKEK) [MALP-2]
antibody responses compared with aluminum hydroxide as standard adjuvant for s.c. injection (0.5 μg MALP-2, s.c., i.p., i.d., i.n.): at least as strong as (i.d.) or stronger
adjuvant effect on β-galactosidase-specific serum antibodies (0.5 μg MALP-2 mixed with 40 μg β-galactosidase, s.c., i.p., i.d., i.n.): significant increase; also recorded: strong adjuvant effect
adjuvant effect on β-galactosidase-specific serum antibodies at higher dose (1 μg MALP-2, i.p. and i.n.): abolition of the adjuvant effect
